Reference: US10618916B2, “Heterocyclic compounds as immunomodulators” (Incyte Corporation, priority 2018, dated 2020)
pEC50, pIC50: −log10 of the molar value.

Experiments:
[1] = biological target: PD-L1 (Homo sapiens (Human), UniProt Q9NZQ7); experiment: PD-L1 whole blood internalization assay; type: cell-based; details: 24 HR, PD-L1 expression on CD14+ cells, human interferon γ
[2] = tested on: U2OS/PD-L1 cells and Jurkat-PD-1-SHP cells; experiment: Src homology region 2 domain-containing phosphatase (SHP) assay; type: cell-based; details: Homo sapiens, U2OS
Summary of the method: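 U2OS/PD-L1 and Jurkat-PD-1-SHP cells (5000 each per well) were co-incubated with compound for 2 h at 37 °C in RPMI1640 with 1% FBS, 0.05% DMSO final. PathHunter chemiluminescence was read after 1 h at room temperature, and IC50 was fitted from percent of DMSO-control activity.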

[3] = tested on: PD-L1 aAPC/CHO-K1 cells and Jurkat-PD-1-NFAT effector cells; experiment: Nuclear factor of activated T-cells (NFAT) assay; type: cell-based; details: Cricetulus griseus, CHO-K1
Summary of the method: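 CHO-K1 cells expressing PD-L1 aAPC were co-cultured with Jurkat-PD-1-NFAT effector cells in RPMI 1640 with 1% FBS and compound (0.4% DMSO; top concentration 2 μM) for 24 h at 37 °C. Bio-Glo luminescence was read, fold induction normalised to DMSO wells, and EC50 fitted from percent of control compound activity.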

[4] = biological target: PD-1/PD-L1 protein/protein interaction (recombinant human PD-L1 and human PD-1) (Homo sapiens (Human), UniProt Q9NZQ7); experiment: Homogeneous Time-Resolved Fluorescence (HTRF) PD-1/PD-L1 binding assay
PD-1/PD-L1 protein/protein interaction (recombinant human PD-L1 and human PD-1), sequence (Q9NZQ7 19-238): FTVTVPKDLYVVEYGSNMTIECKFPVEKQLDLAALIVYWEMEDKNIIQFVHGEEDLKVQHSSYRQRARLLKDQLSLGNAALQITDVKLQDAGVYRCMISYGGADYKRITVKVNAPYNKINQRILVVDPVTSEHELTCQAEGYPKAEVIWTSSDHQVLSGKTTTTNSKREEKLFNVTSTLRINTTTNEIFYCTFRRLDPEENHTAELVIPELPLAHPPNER
Summary of the method: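 Human PD-L1 (19-238, C-His; 10 nM final) and PD-1 (25-167, C-Fc; 3 nM final) preincubated 40 min with inhibitor in PBS pH 7.4, 0.05% Tween-20, 0.1% BSA, 1% DMSO, 25 °C. Eu-anti-human IgG (1 nM) and anti-His-APC (20 nM) added for 60 min; 665/620 nm ratio; IC50 from percent-control curves.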

PD-L1, sequence (Q9NZQ7 19-290): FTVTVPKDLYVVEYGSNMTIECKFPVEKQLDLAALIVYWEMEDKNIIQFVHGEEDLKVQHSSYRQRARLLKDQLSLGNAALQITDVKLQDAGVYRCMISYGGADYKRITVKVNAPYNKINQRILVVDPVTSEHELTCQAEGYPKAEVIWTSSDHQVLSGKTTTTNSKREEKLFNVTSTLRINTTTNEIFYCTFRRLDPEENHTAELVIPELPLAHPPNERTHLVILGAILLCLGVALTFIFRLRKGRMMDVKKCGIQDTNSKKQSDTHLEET

Structure (SMILES) | pIC50 [1] | pIC50 [2] | pEC50 [3] | pIC50 [4]
Cc1c(NC(=O)c2nc3c(n2C)CCN(CCC24CCC(C(=O)O)(CC2)C4)C3)cccc1-c1cccc(NC(=O)c2nc3c(n2C)CCN(CCc2ccc(C(=O)O)cc2)C3)c1Cl [Example 45, 4-(2-(2-((3′-(5-(4-carboxyphenethyl)-1-methyl-4,5,6,7-tetrahydro-1H-imidazo[4,5-c]pyridine-2-carboxamido)-2′-chloro-2-methyl-[1,1′-biphenyl]-3-yl)carbamoyl)-1-methyl-1,4,6,7-tetrahydro-5H-imidazo[4,5-c]pyridin-5-yl)ethyl)bicyclo[2.2.1]heptane-1-carboxylic acid] | 6.30 to 7.00 | ≥ 8.00 | 7.00 to 8.00 | 8.00 to 8.30
C[C@H](O)CN1CCc2c(nc(C(=O)Nc3cccc(-c4cccc(NC(=O)c5nc6c(n5C)CCN(CCC57CCC(C(=O)O)(CC5)C7)C6)c4Cl)c3Cl)n2C)C1 [Example 14, (S)-4-(2-(2-((2,2′-dichloro-3′-(5-(2-hydroxypropyl)-1-methyl-4,5,6,7-tetrahydro-1H-imidazo[4,5-c]pyridine-2-carboxamido)-[1,1′-biphenyl]-3-yl)carbamoyl)-1-methyl-1,4,6,7-tetrahydro-5H-imidazo[4,5-c]pyridin-5-yl)ethyl)bicyclo[2.2.1]heptane-1-carboxylic acid] | 7.00 to 8.00 | ≥ 8.00 | 7.00 to 8.00 | ≥ 8.30
Cc1c(NC(=O)c2nc3c(n2C)CCN(CCC24CCC(C(=O)O)(CC2)C4)C3)cccc1-c1cccc(NC(=O)c2nc3c(n2C)CCN(CCC24CCC(C(=O)O)(CC2)C4)C3)c1C [Example 54, 4,4′-(((((2,2′-dimethyl-[1,1′-biphenyl]-3,3′-diyl)bis(azanediyl))bis(carbonyl))bis(1-methyl-1,4,6,7-tetrahydro-5H-imidazo[4,5-c]pyridine-2,5-diyl))bis(ethane-2,1-diyl))bis(bicyclo[2.2.1]heptane-1-carboxylic acid)] | 6.30 to 7.00 | ≥ 8.00 | 7.00 to 8.00 | ≥ 8.30
Cn1c(C(=O)Nc2cccc(-c3cccc(NC(=O)c4nc5c(n4C)CCN(CC(=O)O)C5)c3Cl)c2Cl)nc2c1CCN(CCC13CCC(C(=O)O)(CC1)C3)C2 [Example 19, 4-(2-(2-((3′-(5-(carboxymethyl)-1-methyl-4,5,6,7-tetrahydro-1H-imidazo[4,5-c]pyridine-2-carboxamido)-2,2′-dichloro-[1,1′-biphenyl]-3-yl)carbamoyl)-1-methyl-1,4,6,7-tetrahydro-5H-imidazo[4,5-c]pyridin-5-yl)ethyl)bicyclo[2.2.1]heptane-1-carboxylic acid] | 7.00 to 8.00 | ≥ 8.00 | 7.00 to 8.00 | ≥ 8.30
Cn1c(C(=O)Nc2cccc(-c3cccc(NC(=O)c4nc5c(n4C)CCN(C[C@H](O)CO)C5)c3Cl)c2Cl)nc2c1CCN(CCC13CCC(C(=O)O)(CC1)C3)C2 [Example 12, (S)-4-(2-(2-((2,2′-dichloro-3′-(5-(2,3-dihydroxypropyl)-1-methyl-4,5,6,7-tetrahydro-1H-imidazo[4,5-c]pyridine-2-carboxamido)-[1,1′-biphenyl]-3-yl)carbamoyl)-1-methyl-1,4,6,7-tetrahydro-5H-imidazo[4,5-c]pyridin-5-yl)ethyl)bicyclo[2.2.1]heptane-1-carboxylic acid] | 7.00 to 8.00 | ≥ 8.00 | 7.00 to 8.00 | ≥ 8.30
Cn1c(C(=O)Nc2cccc(-c3cccc(NC(=O)c4nc5c(n4C)CCN(C4CCC(O)CC4)C5)c3Cl)c2Cl)nc2c1CCN(CCC13CCC(C(=O)O)(CC1)C3)C2 (single isomer, unassigned) [60 (compound 1), 4-(2-(2-((2,2′-dichloro-3′-(5-(4-hydroxycyclohexyl)-1-methyl-4,5,6,7-tetrahydro-1H-imidazo[4,5-c]pyridine-2-carboxamido)-[1,1′-biphenyl]-3-yl)carbamoyl)-1-methyl-1,4,6,7-tetrahydro-5H-imidazo[4,5-c]pyridin-5-yl)ethyl)bicyclo[2.2.1]heptane-1-carboxylic Acid] | 7.00 to 8.00 | ≥ 8.00 | ≥ 8.00 | ≥ 8.30
Cn1c(C(=O)Nc2cccc(-c3cccc(NC(=O)c4nc5c(n4C)CCN(CCC46CCC(C(=O)O)(CC4)C6)C5)c3Cl)c2Cl)nc2c1CCNC2 [Example 1, 4-(2-(2-((2,2′-dichloro-3′-(1-methyl-4,5,6,7-tetrahydro-1H-imidazo[4,5-c]pyridine-2-carboxamido)-[1,1′-biphenyl]-3-yl)carbamoyl)-1-methyl-1,4,6,7-tetrahydro-5H-imidazo[4,5-c]pyridin-5-yl)ethyl)bicyclo[2.2.1]heptane-1-carboxylic Acid] | ≥ 8.00 | ≥ 8.00 | 7.00 to 8.00 | ≥ 8.30
Cc1c(NC(=O)c2nc3c(n2C)CCN(C[C@@H](C)O)C3)cccc1-c1cccc(NC(=O)c2nc3c(n2C)CCN(CCC24CCC(C(=O)O)(CC2)C4)C3)c1Cl [Example 31, (R)-4-(2-(2-((2-chloro-3′-(5-(2-hydroxypropyl)-1-methyl-4,5,6,7-tetrahydro-1H-imidazo[4,5-c]pyridine-2-carboxamido)-2′-methyl-[1,1′-biphenyl]-3-yl)carbamoyl)-1-methyl-1,4,6,7-tetrahydro-5H-imidazo[4,5-c]pyridin-5-yl)ethyl)bicyclo[2.2.1]heptane-1-carboxylic Acid] | 7.00 to 8.00 | ≥ 8.00 | 7.00 to 8.00 | ≥ 8.30
Cc1c(NC(=O)c2nc3c(n2C)CCN(CCC24CCC(C(=O)O)(CC2)C4)C3)cccc1-c1cccc(NC(=O)c2nc3c(n2C)CCN(CC24CCC(C(=O)O)(CC2)C4)C3)c1Cl [Example 44, 4-((2-((3′-(5-(2-(4-carboxybicyclo[2.2.1]heptan-1-yl)ethyl)-1-methyl-4,5,6,7-tetrahydro-1H-imidazo[4,5-c]pyridine-2-carboxamido)-2-chloro-2′-methyl-[1,1′-biphenyl]-3-yl)carbamoyl)-1-methyl-1,4,6,7-tetrahydro-5H-imidazo[4,5-c]pyridin-5-yl)methyl)bicyclo[2.2.1]heptane-1-carboxylic acid] | 6.30 to 7.00 | ≥ 8.00 | 7.00 to 8.00 | ≥ 8.30
Cc1c(NC(=O)c2nc3c(n2C)CCN(CCC24CCC(C(=O)O)(CC2)C4)C3)cccc1-c1cccc(NC(=O)c2nc3c(n2C)CCN(C[C@H](C)O)C3)c1Cl [Example 42, (S)-4-(2-(2-((2′-chloro-3′-(5-(2-hydroxypropyl)-1-methyl-4,5,6,7-tetrahydro-1H-imidazo[4,5-c]pyridine-2-carboxamido)-2-methyl-[1,1′-biphenyl]-3-yl)carbamoyl)-1-methyl-1,4,6,7-tetrahydro-5H-imidazo[4,5-c]pyridin-5-yl)ethyl)bicyclo[2.2.1]heptane-1-carboxylic acid] | 7.00 to 8.00 | ≥ 8.00 | 7.00 to 8.00 | ≥ 8.30
Cc1c(NC(=O)c2nc3c(n2C)CCN(CCC24CCC(C(=O)O)(CC2)C4)C3)cccc1-c1cccc(NC(=O)c2nc3c(n2C)CCN(C[C@@H](C)O)C3)c1C [Example 57, (R)-4-(2-(2-((3′-(5-(2-hydroxypropyl)-1-methyl-4,5,6,7-tetrahydro-1H-imidazo[4,5-c]pyridine-2-carboxamido)-2,2′-dimethyl-[1,1′-biphenyl]-3-yl)carbamoyl)-1-methyl-1,4,6,7-tetrahydro-5H-imidazo[4,5-c]pyridin-5-yl)ethyl)bicyclo[2.2.1]heptane-1-carboxylic Acid] | 7.00 to 8.00 | ≥ 8.00 | 7.00 to 8.00 | ≥ 8.30
Cc1c(NC(=O)c2nc3c(n2C)CCN(CC24CCC(C(=O)O)(CC2)C4)C3)cccc1-c1cccc(NC(=O)c2nc3c(n2C)CCN(CCC24CCC(C(=O)O)(CC2)C4)C3)c1Cl [Example 35, 4-((2-((3′-(5-(2-(4-carboxybicyclo[2.2.1]heptan-1-yl)ethyl)-1-methyl-4,5,6,7-tetrahydro-1H-imidazo[4,5-c]pyridine-2-carboxamido)-2′-chloro-2-methyl-[1,1′-biphenyl]-3-yl)carbamoyl)-1-methyl-1,4,6,7-tetrahydro-5H-imidazo[4,5-c]pyridin-5-yl)methyl)bicyclo[2.2.1]heptane-1-carboxylic acid] | 6.30 to 7.00 | 7.00 to 8.00 | 6.30 to 7.00 | ≥ 8.30
Cn1c(C(=O)Nc2cccc(-c3cccc(NC(=O)c4nc5c(n4C)CCN(C4CCOCC4)C5)c3Cl)c2Cl)nc2c1CCN(CCC13CCC(C(=O)O)(CC1)C3)C2 [Example 2, 4-(2-(2-((2,2′-dichloro-3′-(1-methyl-5-(tetrahydro-2H-pyran-4-yl)-4,5,6,7-tetrahydro-1H-imidazo[4,5-c]pyridine-2-carboxamido)-[1,1′-biphenyl]-3-yl)carbamoyl)-1-methyl-1,4,6,7-tetrahydro-5H-imidazo[4,5-c]pyridin-5-yl)ethyl)bicyclo[2.2.1]heptane-1-carboxylic Acid] | 7.00 to 8.00 | ≥ 8.00 | 7.00 to 8.00 | ≥ 8.30
